Reference: PubChem BioAssay (NCI)
Values joined by “and” are separate entries in the source; they are usually repeats but may differ in a detail not shown here. Identical values can stand only once.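 Results reflect a 48-hour exposure of cells in 96-well plates to compound at five concentrations. GI50 = concentration required for 50% inhibition of growth. The concentration for full growth arrest is given as TGI.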

What was measured:
Test in all cases: NCI anticancer screen, dose series, 48 h
[1] = test system: MDA-MB-231 breast
[2] = test system: BT-549 breast
[3] = test system: NCI/ADR-RES ovarian
[4] = test system: RXF-631 renal
[5] = test system: KM20L2 colon
[6] = test system: M19-MEL melanoma
[7] = test system: MDA-N
[8] = test system: DMS 273 small cell lung
[9] = test system: XF 498 CNS

SMILES	GI50 [1] [nM]	TGI [1]	GI50 [2] [nM]	TGI [2] [µM]	GI50 [3] [µM]	TGI [3]	TGI [4] [µM]	TGI [5] [µM]	TGI [6] [µM]	TGI [7] [µM]	TGI [8] [µM]	TGI [9] [µM]
Cc1cccc2c(=O)c3c(sc12)c(NCCCN)nc1ccccc13	1520	3.03 µM	2600	12.6								
CCC(CO)Nc1nc(NCc2ccccc2)c2n[nH]c(C(C)C)c2n1 (stereo not given)	15800	35.3 µM	10700	23.7	16.7	39.2 µM						
C=C(C)[C@@H]1C/C=C(/COC(C)=O)CC[C@H]2O[C@@]2(C)CC/C=C(\C)CC1					> 100	> 100 µM						
C=CCC1(CN(C)C)CC/C(=C\c2cc(OC)c(OC)c(OC)c2)C1=O (stereo not given)							60.9	44.4	> 100			
C/C(COc1ccc2oc(-c3ccccc3)cc(=O)c2c1)=N\O	14100	36.4 µM			36	> 100 µM						
Oc1cccc2cccnc12		> 28.7 µM and 84 µM and 33.1 µM		> 100		35.4 µM and > 100 µM and > 32 µM				> 100	7.98	
C/C(=N\NC(=O)c1ccccc1O)c1c(O)cc(C)oc1=O								> 100	> 100			
NC(=O)c1ccc(I)c([N+](=O)[O-])c1	49500	> 100 µM	> 100000	> 100	> 100	> 100 µM						
Oc1ccc(Br)cc1C=NC1CCCCC1		> 100 µM		> 100		> 100 µM				> 100		
COc1cc(OCCCN2CCCC2)ccc1Nc1ncc(Cl)c(Nc2ccccc2P(C)(C)=O)n1	1560	11.7 µM	3860	11.7	12.6	> 77.4 µM						
COc1ccc(-c2oc3ncnc(N)c3c2-c2ccc(NC(=O)Nc3cc(C(F)(F)F)ccc3F)cc2)cc1	1100	6.17 µM	1820	5.08	1.17	6.24 µM						
CC(=O)CCc1ccc(Oc2c3ccccc3nc3occc23)cc1	25500	> 100 µM			15.4	45.6 µM						
O=c1oc2ccc(F)cc2c(=O)n1-c1ccc(I)cc1F	614	3.61 µM	486	4.09	0.522	5.89 µM						
NCCCNCc1c2ccccc2c(CNCCCN)c2ccccc12								53.4	35.4			
C#Cc1cccc(Nc2nc(C)nc3cc(NC(=O)CCl)ccc23)c1	886	3.92 µM	1320	5.31	3.42	12.5 µM						
COC(=O)C(/C(=N/N)C(=O)Nc1cc(Cl)ccc1Cl)c1nc2ccc([N+](=O)[O-])cc2[nH]c1=O (stereo not given)								> 100			> 100	> 100
O=C(Nc1ccc(Cl)cc1)c1cc(NCc2cc(O)ccc2O)ccc1O	3490	13.6 µM	1420	3.57	4.43	62.9 µM						

SMILES	GI50 [1] [nM]	TGI [1]	GI50 [2] [nM]	TGI [2] [µM]	GI50 [3] [µM]	TGI [3]	TGI [4] [µM]	TGI [5] [µM]	TGI [6] [µM]	TGI [7] [µM]	TGI [8] [µM]	TGI [9] [µM]
O=C(N/C(=C\c1cccc([N+](=O)[O-])c1)c1nc2c3c(ccc2[nH]1)C(=O)c1ccccc1C3=O)c1ccccc1								> 100				> 100
Cc1ccc(NC(=O)C(=O)C2C(=O)NC(=O)NC2=O)c(C)c1							> 100	> 100	> 100		> 100	
NC1=C(O)/C(=N/NS(=O)(=O)c2ccccc2)C(c2ccc3c(c2)OCO3)O1 (stereo not given)								> 100	83.4		> 100	
CC(=O)N(N=O)c1ccc(N(N=O)C(C)=O)cc1								> 100	> 100		> 100	
CCCCCCCCCCCCCCCCCC1=NC(C)(C)CN1C(C)(C)CO	1290	3.16 µM	3280	14								
COc1ccc(Cc2ccc3[nH]c(=O)cc(C)c3c2)cc1S(=O)(=O)O		> 100 µM		> 100		> 100 µM				> 100		
O=C(O)c1nn(-c2ccc(Cl)cc2)c2c1C(=O)c1ccccc1C2=O		> 100 µM		> 100		> 100 µM				> 100		
CC(C)(C)c1cc[n+](C[n+]2ccc(C(C)(C)C)cc2)cc1		> 100 µM				> 100 µM				> 100		
CC1(C)N=C(N)N=C(N)N1c1cccc(CCCCc2ccc(Cl)c(S(=O)(=O)F)c2)c1	11000	25.8 µM	1350	17.7	> 100	> 100 µM						
CCCCNC(=O)Oc1ccc(/C(=C(\C)c2ccc(OC)cc2)c2ccc(OCCN3CCCCC3)cc2)cc1	2080	3.83 µM	1480	2.89	3.67	19.3 µM						
FC(F)(F)c1cccc(Oc2ccc(Nc3ncnc4ccc(OCCCN5CCOCC5)cc34)cc2Cl)c1	1800	3.72 µM	3090	16.7	2.82	13.8 µM						
Cc1cc(C)c([I+]c2c(C)cc(C)cc2C)c(C)c1	371	1.38 µM	466	1.59	6.54	26.8 µM						
COc1nc(NC2OC(COC(C)=O)C(OC(C)=O)C(OC(C)=O)C2OC(C)=O)c(N=C(C)C(C)=O)c(=O)n1C (stereo not given)								> 100	> 100			> 100
Oc1cccc2ccc(SSc3ccc4cccc(O)c4n3)nc12		32.3 µM		37.6		65.6 µM				38.6		
COC(=O)[C@@H](C)C[C@H](Cc1ccc(F)cc1)NC(=O)c1csc([C@@H](C[C@H](C(C)C)N(C)C(=O)[C@@H](NC(=O)[C@H]2CCCCN2C)C2CC2)OC(C)=O)n1	315	1.65 µM	188	3.72	6.88	> 25 µM						
COc1nc2c(c(=O)n1C)CN(c1ccccc1)C(=O)CN2C	41700	> 100 µM	33200	> 100	72.2	> 100 µM						
